Results as given in paper PMC12316308, “Interactions of substrates and phosphinyl containing inhibitors with bacterial and human zinc proteases” (PLOS One, 2025).
pKi: −log10 of the molar value. Several values for one entry are separate records, joined by “and”; a condition that tells them apart may be missing. Equal values may be shown once. Entries after “also recorded” stand apart in the source; their conditions may differ. Read-outs that look alike come from different tables or passages of the source.

Legend:
[1] = target: T1, Mag-Trypsin activated MMP-9 (MMP-9(MT)) (Homo sapiens, UniProt P14780); experiment: Enzyme inhibition kinetics, fluorogenic substrate ES001; type: biochemical; settings: for Vi/V0 avg: Trypsin activated MMP-9, average
T1 construct: made in house; host or cells: Sf9 and High Five insect cells

aureolysin (ALN) = target: T2, aureolysin (ALN) (Staphylococcus aureus, UniProt P81177); experiment: Enzyme inhibition kinetics, fluorogenic substrate ES005; type: biochemical; settings: for remaining activity at 100 µM: 100 µM inhibitor
T2 construct: purchased BioCentrum Ltd (Kraków, Poland)

pseudolysin (PLN, LasB) = target: T3, pseudolysin (PLN, LasB) (Pseudomonas aeruginosa, UniProt P14756); experiment: as above; type: biochemical; settings: for remaining activity at 100 µM: 100 µM inhibitor
T3 construct: purchased Calbiochem (San Diego, CA, USA)

thermolysin (TLN) = target: T4, thermolysin (TLN) (Bacillus thermoproteolyticus, UniProt P00800); experiment: as above; type: biochemical; settings: for vi/v0 avg (time dependent inhibition, Supplementary Figure S8): Thermolysin, inhibitor 100 µM
T4 construct: purchased Calbiochem (San Diego, CA, USA)
Method in brief: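 Initial rates were read at 37 °C (ex 320/em 405 nm) with 4.0 µM substrate, ES001 for MMP-14 (1.0 nM) and ES005 for PLN (0.5 nM), TLN (0.21 nM), ALN (1.4 nM), in pH 7.5 Hepes, 10 mM CaCl2, 0.005% Brij-35, 1.0% DMSO. Enzymes were preincubated 30 min at room temperature or not; IC50 fitted, Ki from IC50 using Km.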

MMP-9 = settings: previously reported; cited from earlier work
MMP-14 = settings: previously reported; cited from earlier work

T2 sequence (P81177 209-509): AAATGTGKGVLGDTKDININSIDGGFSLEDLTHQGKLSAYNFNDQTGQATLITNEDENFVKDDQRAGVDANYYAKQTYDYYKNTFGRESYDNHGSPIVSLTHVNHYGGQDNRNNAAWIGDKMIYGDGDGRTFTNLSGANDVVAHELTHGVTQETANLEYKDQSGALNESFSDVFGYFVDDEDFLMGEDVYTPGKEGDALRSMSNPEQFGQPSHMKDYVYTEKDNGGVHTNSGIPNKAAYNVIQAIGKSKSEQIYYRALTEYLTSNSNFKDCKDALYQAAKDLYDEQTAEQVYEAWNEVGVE
T1 sequence (P14780 107-707 limits assumed): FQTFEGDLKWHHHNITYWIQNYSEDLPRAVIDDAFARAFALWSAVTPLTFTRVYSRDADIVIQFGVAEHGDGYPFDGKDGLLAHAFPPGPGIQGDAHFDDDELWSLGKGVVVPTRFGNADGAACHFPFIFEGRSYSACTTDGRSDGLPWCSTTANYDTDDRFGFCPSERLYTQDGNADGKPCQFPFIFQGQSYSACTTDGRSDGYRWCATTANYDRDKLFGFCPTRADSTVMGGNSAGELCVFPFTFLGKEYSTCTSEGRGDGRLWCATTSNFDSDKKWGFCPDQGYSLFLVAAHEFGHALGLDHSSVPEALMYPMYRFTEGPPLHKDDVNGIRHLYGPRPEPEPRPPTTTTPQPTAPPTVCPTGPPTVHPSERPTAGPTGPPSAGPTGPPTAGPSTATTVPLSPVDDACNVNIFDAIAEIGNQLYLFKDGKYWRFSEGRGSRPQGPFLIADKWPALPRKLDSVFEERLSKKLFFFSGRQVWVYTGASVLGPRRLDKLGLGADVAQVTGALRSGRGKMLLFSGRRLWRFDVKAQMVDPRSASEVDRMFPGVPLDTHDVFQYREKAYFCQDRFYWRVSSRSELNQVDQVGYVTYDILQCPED
T3 sequence (P14756 198-498): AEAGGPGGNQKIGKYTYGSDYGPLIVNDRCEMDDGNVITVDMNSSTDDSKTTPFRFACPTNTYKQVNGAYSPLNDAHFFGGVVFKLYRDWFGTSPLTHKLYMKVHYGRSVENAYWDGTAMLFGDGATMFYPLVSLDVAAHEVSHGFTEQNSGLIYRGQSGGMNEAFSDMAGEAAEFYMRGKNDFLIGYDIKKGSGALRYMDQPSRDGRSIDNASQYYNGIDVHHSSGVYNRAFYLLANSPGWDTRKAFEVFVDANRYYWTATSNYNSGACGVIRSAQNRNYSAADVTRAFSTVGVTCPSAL
T4 sequence (P00800 233-548): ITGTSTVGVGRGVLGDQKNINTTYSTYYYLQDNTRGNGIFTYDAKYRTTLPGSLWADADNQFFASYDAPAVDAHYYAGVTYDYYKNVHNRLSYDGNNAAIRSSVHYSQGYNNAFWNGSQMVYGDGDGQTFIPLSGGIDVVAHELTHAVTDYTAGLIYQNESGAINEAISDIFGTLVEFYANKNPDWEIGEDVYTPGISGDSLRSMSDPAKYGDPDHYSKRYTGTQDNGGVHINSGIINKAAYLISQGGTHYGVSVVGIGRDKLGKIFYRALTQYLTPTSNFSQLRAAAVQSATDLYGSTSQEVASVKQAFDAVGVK

SMILES: NC(=O)C(CCC(=O)O)NC(=O)C(CCC(=O)O)NC(=O)C(Cc1cc(-c2ccc(-c3cccc(Cl)c3)cc2)no1)CP(=O)(O)c1ccc(Br)cc1 (stereo not drawn) [H-1]
- Vi/V0 avg ([1]; [H1] 30 μM): 0.6506
- Vi/V0 avg ([1]; [H1] 40 μM): 0.6729
- Vi/V0 avg ([1]; [H1] 50 μM): 0.6218
- Vi/V0 avg ([1]; [H1] 60 μM): 0.5683
- Vi/V0 avg ([1]; [H1] 70 μM): 0.5353
- Vi/V0 avg ([1]; [H1] 80 μM): 0.5363
- Vi/V0 avg ([1]; [H1] 90 μM): 0.4452
- Vi/V0 avg ([1]; [H1] 100 μM): 0.4212
- vi/v0 Av (bar diagram figure 7) ([1]; rMMP-9 (Mag-trypsin activated), inhibitor 100 μM, average over 0, 15, 30 min preincubation): 0.4755
- vi/v0 (relative enzyme activity with inhibitor), single determinations ([1]; rMMP-9 (Mag-trypsin activated), inhibitor 100 μM, preincubation 0 min): 0.4571 and 0.4536 and 0.4887 and 0.489
- vi/v0 (relative enzyme activity with inhibitor), single determinations ([1]; rMMP-9 (Mag-trypsin activated), inhibitor 100 μM, preincubation 15 min): 0.3806 and 0.5206 and 0.4881 and 0.528
- vi/v0 (relative enzyme activity with inhibitor), single determinations ([1]; rMMP-9 (Mag-trypsin activated), inhibitor 100 μM, preincubation 30 min): 0.4739 and 0.4997 and 0.4971 and 0.4295
- remaining activity at 10 µM ([1]; read-out: Vi/V0, Trypsin activated MMP-9, [H1] 10 μM, replicate vi over each of 4 controls): 76.1%
- remaining activity at 40 µM ([1]; read-out: Vi/V0, Trypsin activated MMP-9, [H1] 40 μM, replicate vi over each of 4 controls): 63.2%
- remaining activity at 50 µM ([1]; read-out: Vi/V0, Trypsin activated MMP-9, [H1] 50 μM, replicate vi over each of 4 controls): 58.9%
- remaining activity at 60 µM ([1]; read-out: Vi/V0, Trypsin activated MMP-9, [H1] 60 μM, replicate vi over each of 4 controls): 52.9%
- remaining activity at 70 µM ([1]; read-out: Vi/V0, Trypsin activated MMP-9, [H1] 70 μM, replicate vi over each of 4 controls): 49.6%
- remaining activity at 80 µM ([1]; read-out: Vi/V0, Trypsin activated MMP-9, [H1] 80 μM, replicate vi over each of 4 controls): 51%
- remaining activity at 90 µM ([1]; read-out: Vi/V0, Trypsin activated MMP-9, [H1] 90 μM, replicate vi over each of 4 controls): 44.2%
- remaining activity at 100 µM ([1]; read-out: Vi/V0, Trypsin activated MMP-9, [H1] 100 μM, replicate vi over each of 4 controls): 40.5%
- remaining activity at 100 µM ([1]; read-out: vi/v0 (single replicate), rMMP-9 (Mag-trypsin activated), 100 µM inhibitor, no preincubation): 45.7%
- remaining activity at 100 µM ([1]; read-out: vi/v0 avg, rMMP-9 (Mag-trypsin activated), 100 µM inhibitor, no preincubation): 47.2%
- remaining activity at 100 µM (aureolysin (ALN); 0.25 h, read-out: vi/v0 (single replicate), Aureolysin, 15 min pre incubation): 81.9%
- remaining activity at 100 µM (aureolysin (ALN); 0.25 h, read-out: vi/v0 avg, Aureolysin, 15 min pre incubation): 88.7%
- remaining activity at 100 µM (aureolysin (ALN); 0.5 h, read-out: vi/v0 (single replicate), Aureolysin, 30 min pre incubation): 89.6%
- remaining activity at 100 µM (aureolysin (ALN); 0.5 h, read-out: vi/v0 avg, Aureolysin, 30 min pre incubation): 89.8%
- inhibitory effect on enzymatic activity (aureolysin (ALN); ALN, 100 μM compound, in words, 100 µM): did not inhibit; also recorded: no inhibition
- vi/v0 Av (bar diagram figure 7) (aureolysin (ALN); Aureolysin (ALN), inhibitor 100 μM, average over 0, 15, 30 min preincubation): 0.886
- vi/v0 (relative enzyme activity with inhibitor), single determinations (aureolysin (ALN); Aureolysin (ALN), inhibitor 100 μM, preincubation 0 min): 0.8363 and 0.9057 and 0.9048 and 0.862
- vi/v0 (relative enzyme activity with inhibitor), single determinations (aureolysin (ALN); Aureolysin (ALN), inhibitor 100 μM, preincubation 15 min): 0.8192 and 0.9295 and 0.9112
- vi/v0 (relative enzyme activity with inhibitor), single determinations (aureolysin (ALN); Aureolysin (ALN), inhibitor 100 μM, preincubation 30 min): 0.8961 and 0.9218 and 0.8734
- remaining activity at 100 µM (aureolysin (ALN); read-out: vi/v0 (single replicate), Aureolysin, no preincubation): 83.6%
- remaining activity at 100 µM (aureolysin (ALN); read-out: vi/v0 avg, Aureolysin, no preincubation): 87.7%
- remaining activity at 100 µM (pseudolysin (PLN, LasB); 0.25 h, read-out: vi/v0 (single replicate), Pseudolysin, 15 min pre incubation): 97.4%
- remaining activity at 100 µM (pseudolysin (PLN, LasB); 0.25 h, read-out: vi/v0 avg, Pseudolysin, 15 min pre incubation): 100%
- remaining activity at 100 µM (pseudolysin (PLN, LasB); 0.5 h, read-out: vi/v0 (single replicate), Pseudolysin, 30 min pre incubation): 99%
- remaining activity at 100 µM (pseudolysin (PLN, LasB); 0.5 h, read-out: vi/v0 avg, Pseudolysin, 30 min pre incubation): 96.9%
- inhibitory effect on enzymatic activity (pseudolysin (PLN, LasB); PLN, 100 μM compound, in words, 100 µM): did not inhibit; also recorded: no inhibition
- vi/v0 Av (bar diagram figure 7) (pseudolysin (PLN, LasB); Pseudolysin (PLN), inhibitor 100 μM, average over 0, 15, 30 min preincubation): 0.993
- vi/v0 (relative enzyme activity with inhibitor), single determinations (pseudolysin (PLN, LasB); Pseudolysin (PLN), inhibitor 100 μM, preincubation 0 min): 0.9731 and 1.039 and 1.005 and 1.023
- vi/v0 (relative enzyme activity with inhibitor), single determinations (pseudolysin (PLN, LasB); Pseudolysin (PLN), inhibitor 100 μM, preincubation 15 min): 0.9736 and 1.014 and 0.9905 and 1.0217
- vi/v0 (relative enzyme activity with inhibitor), single determinations (pseudolysin (PLN, LasB); Pseudolysin (PLN), inhibitor 100 μM, preincubation 30 min): 0.9904 and 0.9857 and 0.9514 and 0.949
- remaining activity at 100 µM (pseudolysin (PLN, LasB); read-out: vi/v0 (single replicate), Pseudolysin, no preincubation): 97.3%
- remaining activity at 100 µM (pseudolysin (PLN, LasB); read-out: vi/v0 avg, Pseudolysin, no preincubation): 101%
- inhibitory effect on enzymatic activity (thermolysin (TLN); TLN, 100 μM compound, in words, 100 µM): did not inhibit; also recorded: no inhibition
- vi/v0 Av (bar diagram figure 7) (thermolysin (TLN); Thermolysin (TLN), inhibitor 100 μM, average over 0, 15, 30 min preincubation): 1.079
- vi/v0 (relative enzyme activity with inhibitor), single determinations (thermolysin (TLN); Thermolysin (TLN), inhibitor 100 μM, preincubation 0 min): 1.072 and 1.233 and 0.6933 and 1.269
- vi/v0 (relative enzyme activity with inhibitor), single determinations (thermolysin (TLN); Thermolysin (TLN), inhibitor 100 μM, preincubation 15 min): 1.072 and 0.7991 and 1.161 and 1.236
- vi/v0 (relative enzyme activity with inhibitor), single determinations (thermolysin (TLN); Thermolysin (TLN), inhibitor 100 μM, preincubation 30 min): 1.057 and 0.7107 and 1.167 and 1.093
- vi/v0 avg (time dependent inhibition, Supplementary Figure S8) (thermolysin (TLN); 15 min pre incubation): 1.067
- vi/v0 avg (time dependent inhibition, Supplementary Figure S8) (thermolysin (TLN); 30 min pre incubation): 1.007
- vi/v0 avg (time dependent inhibition, Supplementary Figure S8) (thermolysin (TLN); No preincubation): 1.0666
- pKi (MMP-9): 5.89
- pKi (MMP-14): 6.85
